{
  "source": "patent US20060122197A1",
  "about": "“Amido compounds and their use as pharmaceuticals” (priority 2004, published 2006)",
  "origin": "cited, not measured here",
  "biological_target": "T1, 11βHSD1 in the eye (Homo sapiens, UniProt P28845)",
  "T1 construct": "host or cells: eye of healthy volunteers (in vivo)",
  "T1 sequence (P28845 whole entry)": "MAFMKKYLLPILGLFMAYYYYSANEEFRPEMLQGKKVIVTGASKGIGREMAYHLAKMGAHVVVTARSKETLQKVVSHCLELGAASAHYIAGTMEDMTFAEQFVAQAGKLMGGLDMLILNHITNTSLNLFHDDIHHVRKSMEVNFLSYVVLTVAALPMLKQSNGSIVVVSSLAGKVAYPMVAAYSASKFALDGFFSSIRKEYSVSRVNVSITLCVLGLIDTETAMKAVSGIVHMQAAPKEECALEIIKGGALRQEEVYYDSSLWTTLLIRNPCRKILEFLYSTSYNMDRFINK",
  "details": "healthy volunteers; after seven days of carbenoxolone treatment",
  "data": [
    {"smiles": "CC1(C)[C@@H](OC(=O)CCC(=O)O)CC[C@]2(C)[C@H]3C(=O)C=C4[C@@H]5C[C@@](C)(C(=O)O)CC[C@]5(C)CC[C@@]4(C)[C@]3(C)CC[C@@H]12", "note": "[carbenoxolone]", "values": [
      {"measurement": "IOP was reduced by", "result": 18, "unit": "%"}
    ]}
  ]
}
